Laboratory results published in patent US20260226493A1, “HERBICIDE RESISTANT PLANTS” (SYNGENTA CROP PROTECTION AG, priority 2023, published 2026).

Columns and labels:
Assay in all cases: BIO3-BIO1 mutant enzyme activity in the presence of herbicide, percentage inhibition (fluorometric DAPA assay)
Format in all cases: biochemical
Details in all cases: read-out: percentage inhibition
[1] = target: T1, Arabidopsis thaliana BIO3-BIO1 (BioDA) mutants (Arabidopsis thaliana, UniProt B0F481, P421G)
T1 construct: with the predicted N-terminal mitochondrial transit peptide removed; 6xHis-tag (N); thrombin cleavage site (N); made in house; host or cells: E. coli BL21 (DE3) bioA
T1 sequence (B0F481 23-833 P421G): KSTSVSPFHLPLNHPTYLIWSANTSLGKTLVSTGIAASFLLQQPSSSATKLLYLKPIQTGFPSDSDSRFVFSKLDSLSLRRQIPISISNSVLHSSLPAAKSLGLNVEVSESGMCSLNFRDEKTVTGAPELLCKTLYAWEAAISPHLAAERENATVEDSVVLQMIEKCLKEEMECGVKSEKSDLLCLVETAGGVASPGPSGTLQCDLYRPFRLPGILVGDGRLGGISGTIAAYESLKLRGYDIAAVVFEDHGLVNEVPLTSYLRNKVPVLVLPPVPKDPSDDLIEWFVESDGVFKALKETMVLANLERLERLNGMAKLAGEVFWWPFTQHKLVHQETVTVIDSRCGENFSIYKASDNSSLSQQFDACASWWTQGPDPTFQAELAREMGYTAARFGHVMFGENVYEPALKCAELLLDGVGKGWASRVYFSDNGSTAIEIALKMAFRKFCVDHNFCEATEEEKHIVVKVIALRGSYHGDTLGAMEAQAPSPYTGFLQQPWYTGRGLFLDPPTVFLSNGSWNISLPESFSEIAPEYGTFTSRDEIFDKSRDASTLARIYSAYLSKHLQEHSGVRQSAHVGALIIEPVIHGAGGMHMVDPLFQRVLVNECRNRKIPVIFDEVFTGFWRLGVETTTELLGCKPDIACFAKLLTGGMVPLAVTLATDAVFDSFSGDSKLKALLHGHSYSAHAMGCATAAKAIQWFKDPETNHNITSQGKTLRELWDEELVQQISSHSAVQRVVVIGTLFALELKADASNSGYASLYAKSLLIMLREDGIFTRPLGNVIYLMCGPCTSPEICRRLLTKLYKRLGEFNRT
Procedure, shortened: (§1)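 His-tagged Arabidopsis BIO3-BIO1 mutants, expressed in E. coli and purified by IMAC and SEC, were preincubated at 50 nM with herbicide for 10 min at 20 °C in EPPS pH 8.6 with pyridoxal phosphate. Reaction with 100 μM spermidine and 20 μM KAPA ran 75 min at 20 °C; DAPA was derivatised with o-phthalaldehyde and read at ex 410/em 470 nm. […].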

[2] = target: T2, Arabidopsis thaliana BIO3-BIO1 (BioDA) mutants (Arabidopsis thaliana, UniProt B0F481, W392C)
T2 construct: with the predicted N-terminal mitochondrial transit peptide removed; 6xHis-tag (N); thrombin cleavage site (N); made in house; host or cells: E. coli BL21 (DE3) bioA
T2 sequence (B0F481 23-833 W392C): as the sequence (B0F481 23-833 P421G) above, with W370C, G399P counted along it
Procedure, shortened: as §1

[3] = target: T3, Arabidopsis thaliana BIO3-BIO1 (BioDA) mutants (Arabidopsis thaliana, UniProt B0F481, S509A)
T3 construct: with the predicted N-terminal mitochondrial transit peptide removed; 6xHis-tag (N); thrombin cleavage site (N); made in house; host or cells: E. coli BL21 (DE3) bioA
T3 sequence (B0F481 23-833 S509A): as the sequence (B0F481 23-833 P421G) above, with G399P, S487A counted along it
Procedure, shortened: as §1

[4] = target: T4, Arabidopsis thaliana BIO3-BIO1 (BioDA) mutants (Arabidopsis thaliana, UniProt B0F481, P421W)
T4 construct: with the predicted N-terminal mitochondrial transit peptide removed; 6xHis-tag (N); thrombin cleavage site (N); made in house; host or cells: E. coli BL21 (DE3) bioA
T4 sequence (B0F481 23-833 P421W): as the sequence (B0F481 23-833 P421G) above, with G399W counted along it
Procedure, shortened: as §1

[5] = target: T5, Arabidopsis thaliana BIO3-BIO1 (BioDA) mutants (Arabidopsis thaliana, UniProt B0F481, A609K)
T5 construct: with the predicted N-terminal mitochondrial transit peptide removed; 6xHis-tag (N); thrombin cleavage site (N); made in house; host or cells: E. coli BL21 (DE3) bioA
T5 sequence (B0F481 23-833 A609K): as the sequence (B0F481 23-833 P421G) above, with G399P, A587K counted along it
Procedure, shortened: as §1

[6] = target: T6, Arabidopsis thaliana BIO3-BIO1 (BioDA) mutants (Arabidopsis thaliana, UniProt B0F481, Q517W)
T6 construct: with the predicted N-terminal mitochondrial transit peptide removed; 6xHis-tag (N); thrombin cleavage site (N); made in house; host or cells: E. coli BL21 (DE3) bioA
T6 sequence (B0F481 23-833 Q517W): as the sequence (B0F481 23-833 P421G) above, with G399P, Q495W counted along it
Procedure, shortened: as §1

[7] = target: T7, Arabidopsis thaliana BIO3-BIO1 (BioDA) mutants (Arabidopsis thaliana, UniProt B0F481, S509L)
T7 construct: with the predicted N-terminal mitochondrial transit peptide removed; 6xHis-tag (N); thrombin cleavage site (N); made in house; host or cells: E. coli BL21 (DE3) bioA
T7 sequence (B0F481 23-833 S509L): as the sequence (B0F481 23-833 P421G) above, with G399P, S487L counted along it
Procedure, shortened: as §1

[8] = target: T8, Arabidopsis thaliana BIO3-BIO1 (BioDA) mutants (Arabidopsis thaliana, UniProt B0F481, F348T)
T8 construct: with the predicted N-terminal mitochondrial transit peptide removed; 6xHis-tag (N); thrombin cleavage site (N); made in house; host or cells: E. coli BL21 (DE3) bioA
T8 sequence (B0F481 23-833 F348T): as the sequence (B0F481 23-833 P421G) above, with F326T, G399P counted along it
Procedure, shortened: as §1

[9] = target: T9, Arabidopsis thaliana BIO3-BIO1 (BioDA) mutants (Arabidopsis thaliana, UniProt B0F481, Y511D)
T9 construct: with the predicted N-terminal mitochondrial transit peptide removed; 6xHis-tag (N); thrombin cleavage site (N); made in house; host or cells: E. coli BL21 (DE3) bioA
T9 sequence (B0F481 23-833 Y511D): as the sequence (B0F481 23-833 P421G) above, with G399P, Y489D counted along it
Procedure, shortened: as §1

[10] = target: T10, Arabidopsis thaliana BIO3-BIO1 (BioDA) mutants (Arabidopsis thaliana, UniProt B0F481, R756K)
T10 construct: with the predicted N-terminal mitochondrial transit peptide removed; 6xHis-tag (N); thrombin cleavage site (N); made in house; host or cells: E. coli BL21 (DE3) bioA
T10 sequence (B0F481 23-833 R756K): as the sequence (B0F481 23-833 P421G) above, with G399P, R734K counted along it
Procedure, shortened: as §1

[11] = target: T11, Arabidopsis thaliana BIO3-BIO1 (BioDA) mutants (Arabidopsis thaliana, UniProt B0F481, V354A)
T11 construct: with the predicted N-terminal mitochondrial transit peptide removed; 6xHis-tag (N); thrombin cleavage site (N); made in house; host or cells: E. coli BL21 (DE3) bioA
T11 sequence (B0F481 23-833 V354A): as the sequence (B0F481 23-833 P421G) above, with V332A, G399P counted along it
Procedure, shortened: as §1

[12] = target: T12, Arabidopsis thaliana BIO3-BIO1 (BioDA) mutants (Arabidopsis thaliana, UniProt B0F481, C388D)
T12 construct: with the predicted N-terminal mitochondrial transit peptide removed; 6xHis-tag (N); thrombin cleavage site (N); made in house; host or cells: E. coli BL21 (DE3) bioA
T12 sequence (B0F481 23-833 C388D): as the sequence (B0F481 23-833 P421G) above, with C366D, G399P counted along it
Procedure, shortened: as §1

SMILES | inhibition at 1 µM [1] | inhibition at 1 µM [2] | inhibition at 1 µM [3] | inhibition at 1 µM [4] | inhibition at 1 µM [5] | inhibition at 1 µM [6] | inhibition at 1 µM [7] | inhibition at 1 µM [8] | inhibition at 1 µM [9] | inhibition at 1 µM [10] | inhibition at 1 µM [11] | inhibition at 1 µM [12] | inhibition at 0.2 µM [1] | inhibition at 5 µM [1] | inhibition at 0.2 µM [2] | inhibition at 5 µM [2] | inhibition at 0.2 µM [3] | inhibition at 5 µM [3] | inhibition at 0.2 µM [4] | inhibition at 5 µM [4] | also measured
CCOC(=O)c1nn(-c2ccc3c(c2)OC(F)(F)C(F)(F)O3)c2cccc(C(C)=O)c2c1=O [Compound A, ethyl 5-acetyl-4-oxo-1-(2,2,3,3-tetrafluoro-1,4-benzodioxin-6-yl)cinnoline-3-carboxylate] | 30% | 42% | 0% | 21% | 18% | 9% | 6% | 0% | 10% | 33% | 9% | 14% |  |  |  |  |  |  |  |  | 
CCn1c(C)c(-c2ccc(F)cc2F)c(=O)c(C(=O)O)c1-c1ccc(Cl)c(Cl)c1 [Compound C, 2-(3,4-dichlorophenyl)-5-(2,4-difluorophenyl)-1-ethyl-6-methyl-4-oxo-pyridine-3-carboxylic acid] | 35% | 55% | 63% | 15% | 80% | 72% | 85% | 4% | 93% | 42% | 26% | 0% | 11% | 80% | 20% | 87% | 0% | 95% | 0% | 37% | inhibition at 0.2 µM [5]: 65%; inhibition at 5 µM [5]: 87%; inhibition at 0.2 µM [6]: 29%; inhibition at 5 µM [6]: 90%; inhibition at 0.2 µM [7]: 24%; inhibition at 5 µM [7]: 99%; inhibition at 0.2 µM [8]: 0%; inhibition at 5 µM [8]: 0%; inhibition at 0.2 µM [9]: 68%; inhibition at 5 µM [9]: 99%; inhibition at 0.2 µM [10]: 6%; inhibition at 5 µM [10]: 80%; inhibition at 0.2 µM [11]: 0%; inhibition at 5 µM [11]: 75%; inhibition at 0.2 µM [12]: 5%; inhibition at 5 µM [12]: 9%
CCn1c(Cn2ccc(C(F)(F)F)n2)cc(=O)c(C(=O)O)c1-c1ccc(Cl)c(Cl)c1 [Compound L, 2-(3,4-dichlorophenyl)-1-ethyl-4-oxo-6-[[3-(trifluoromethyl)pyrazol-1-yl]methyl]pyridine-3-carboxylic acid] |  |  |  |  |  |  |  |  |  |  |  |  |  |  |  |  |  |  |  |  | inhibition at 0.01 µM [1]: 9%; inhibition at 0.075 µM [1]: 11%; inhibition at 0.5 µM [1]: 85%; inhibition at 0.01 µM [4]: 0%; inhibition at 0.075 µM [4]: 8%; inhibition at 0.5 µM [4]: 27%; inhibition at 0.01 µM [5]: 36%; inhibition at 0.075 µM [5]: 52%; inhibition at 0.5 µM [5]: 64%; inhibition at 0.01 µM [8]: 1%; inhibition at 0.075 µM [8]: 3%; inhibition at 0.5 µM [8]: 7%; inhibition at 0.01 µM [12]: 0%; inhibition at 0.075 µM [12]: 0%; inhibition at 0.5 µM [12]: 6%
CCn1c(-c2ccc(Cl)c(Cl)c2)c(C(=O)O)c(=O)c2cc(F)ccc21 [Compound M, 2-(3,4-dichlorophenyl)-1-ethyl-6-fluoro-4-oxo-quinoline-3-carboxylic acid] | 39% | 17% | 33% | 0% | 78% | 51% | 68% | 2% | 81% | 36% | 13% | 0% | 19% | 75% | 0% | 27% | 0% | 81% | 0% | 18% | inhibition at 0.2 µM [5]: 0%; inhibition at 5 µM [5]: 92%; inhibition at 0.2 µM [6]: 26%; inhibition at 5 µM [6]: 79%; inhibition at 0.2 µM [7]: 19%; inhibition at 5 µM [7]: 94%; inhibition at 0.2 µM [8]: 15%; inhibition at 5 µM [8]: 7%; inhibition at 0.2 µM [9]: 38%; inhibition at 5 µM [9]: 96%; inhibition at 0.2 µM [10]: 10%; inhibition at 5 µM [10]: 71%; inhibition at 0.2 µM [11]: 6%; inhibition at 5 µM [11]: 65%; inhibition at 0.2 µM [12]: 0%; inhibition at 5 µM [12]: 0%
